Two compounds from patent US20210276960A1, “INHIBITORS OF TISSUE TRANSGLUTAMINASE 2 (TG2) AND USES THEREOF” (Northwestern University, priority 2020, published 2021) can be followed below.

In assay [1] the test system is FAK and ERK phosphorylation in OVCAR5 cells. Kind of assay: Western blotting, time course after attachment to FN. It is filed as cell-based, human. To be noted: 5 μM. The method, then: FIG. 5. Effects of SMIs targeting the TG2/FN complex on “outside-in” signaling and adhesion to mesothelial surfaces. A, Western blot analysis of total and phosphorylated FAK and ERK was performed using cell lysates extracted from OVCAR cells plated on FN for 15 to 45 minutes in the presence of TG53 (left) or MT-4 (right) at 5 μM concentration, as compared to DMSO. GAPDH was used as a control. OVCAR5 cells had been pretreated with the inhibitors for 72 hours. Densitometry analysis used the Quantity One software and results were normalized to GAPDH loading controls. DMSO 0 min time point was considered as 1 for comparative analysis. Values are shown for each band. B, A modified cell adhesion assay measured the effects of TG53, MT-4, MT-5, and MT-6 (25 μM) on SKOV3 cells' adhesion onto semi-confluent LP9 monolayers. C, Dose-dependent effects of TG53, MT-4, MT-5, and MT-6 on OVCAR433 cells adhesion onto semi-confluent LP9 monolayers. D-E, Wound healing assay measures migration of SKOV3 and OVCAR5 cells in the presence of MT-4, MT-5, MT-6 at a concentration of 8 μM (black bars) or vehicle (open bar). Migration rate was determined over a period of 24 hours by measuring the average distance between the wound borders at the beginning and at the end of the assay interval (n=4). F-G, SKOV3-GFP OC cells were injected ip in NSG mice in the presence of either MT-4 ([…]) (F) or MT-6 ([…]) (G) and allowed to attach to the peritoneal wall. After 2 hours, the cell suspension was recovered from the peritoneal cavity through peritoneal washings and the non-attached OC cells recovered were counted. *p<0.05, **p<0.01, ***p<0.001, ****p<0.0001.
OVCAR5 cells were seeded(1×10^5 cells/well) in 6-well plates (Denville Scientific) and treated for 72 hrs with 1 μM MT-4, TG53 or vehicle control (DMSO). After drug exposure, cells were detached using Cellstripper (cellgro, #25-056-CI, CORNING, Manassas, Va., USA), centrifuged, and counted. Before seeding for either confocal microscopy or western blotting, they were incubated in serum free media in the presence of drugs for 15-90 minutes, as stated in the figure legends.
Cells pre-treated as stated above were seeded in 60 mm dishes coated with 5 μg/mL FN and serially harvested at 15, 30, and 45 minutes, − or left unattached (0 min), in cold RIPA buffer. Lysates were separated by SDS-PAGE, transferred onto PVDF membranes (Bio-Rad), incubated with primary and secondary antibodies and developed by using SuperSignal™ West Femto Maximum Sensitivity Substrate and Pierce™ ECL Western Blotting Substrate, respectively (Thermo Scientific). […] Densitometry analysis was performed using Quantity One software (Bio-Rad) and results were normalized to GAPDH loading controls. […]

Assay [2] deals with integrin β1 on SKOV3 cells. Description: Flow cytometry of surface integrin β1, SKOV3. It is filed as cell-based. To be noted: serial concentrations. The method, then:
FIG. 32. Flow cytometry analysis of integrin 31 plasma membrane expression. […] OC cells were pre-incubated 1 h with serial dilutions of MT4 (as compared to TG53- and DMSO-treated cells), and left to attach for on either plastic (P) or fibronectin (FN) coated 6-well plates. Anti-integrin 31 antibodies (0.5 μg/mL) were used as control.
Background: Flow cytometry measures light scatter and fluorescence of single cells or particles in a stream.

Assay [3] concerns SKOV3 cells adhesion to FN. Description: Solid phase adhesion assay to FN, SKOV3. It is filed as cell-based. As for the experimental part:
Cells labeled with calcein AM (Life Technologies, #L3224) were seeded at a density of 4×10^4 cells in 96-well plates pre-coated with FN (5 μg/mL, Sigma, #F1141), and blocked using 1% BSA (Sigma, #A9647) in PBS in the presence of selected compounds diluted at the specified concentrations, in serum free media. After 45 minutes, unattached cells were washed using PBS containing 1 mM MgCl2(Sigma, #M8266) and adherent cells were quantified in a SpectraMaxGeminiXS fluorescence plate reader (Molecular Devices, Palo Alto, Calif.) at 530 nm wavelength. Experiments were performed inquadruplicate and repeated at least twice.

Turning to `COc1ccc(Cl)cc1C(=O)Nc1ccc(Nc2nc(C)cc(N(C)C)n2)cc1` [TG53], in assay [1] (15 to 45 minutes on FN), the “FAK phosphorylation, time course” value is reported as “modestly delayed”. For the same compound, in assay [1] (control 15 minutes), the “time of peak FAK activation post cell seeding on FN” value was 30 min. For the same compound, the “β1 integrin receptors at the plasma membrane” value in assay [2] was “did not show significant downregulation”. The “cell adhesion to FN” value in assay [3] (25 μM, FIG. 13A) is given as “inhibited cell adhesion”. Also, in assay [3] (25 μM, SKOV3pcDNA3.1 vs SKOV3-ASTG2), the “inhibition of cell adhesion to FN, TG2 expressing vs AS-TG2 cells” value is recorded as “more pronounced in TG2 expressing SKOV3pcDNA3.1 cells”. Moreover, the “cell adhesion to FN, dose dependence and specificity” value in assay [3] (1-25 μM, TG53 compared with TG288) is on record as “dose-dependent”.

Regarding `Cc1cc(N(C)C)nc(Nc2ccc(NC(=O)Cc3ccccc3)cc2)n1` [MT-4], in assay [1] (15 to 45 minutes on FN), the “ERK phosphorylation, time course” value was “inhibited and delayed”; the “FAK phosphorylation, time course” value is “more evident”. Further, the “β1 integrin receptors at the plasma membrane” value in assay [2] is “did not show significant downregulation”. Moreover, the “cell adhesion to FN, dose dependence” value in assay [3] (2 μM-25 μM) was “dose-dependent inhibitory effect”. In addition, the “OC cells' adhesion to FN” value in assay [3] (FN 5 μg/mL, FIG. 2E) is “potently blocked”.
